The record followed here is US10948498B2, “Methods and kits for predicting the risk of having a cardiovascular disease or event” (INOTREM, priority 2013, dated 2021).

Test [1] has as its system Atherosclerotic mice (24 weeks old ApoE−/− mice under fat diet). The experiment in a line: Atherosclerosis in mouse: plasma sTREM-1 after peptide treatment. The test is classed as in vivo. How it is done: (B) Atherosclerotic mice were randomized to receive LR12 (100 μg in 0.2 mL NaCl 0.9% once a day for 4 weeks) or scrambled-LR12 (100 μg in 0.2 mL NaCl 0.9% once a day for 4 weeks), i.p. injections. Blood samples were obtained at the end of the treatment (4 weeks) to assess sTREM-1 plasma concentrations. Physiologic baseline is calculated from dosage in healthy animals. N=10 per group.
(§1) Mice serum levels of sTREM-1 were determined by ELISA (Mouse TREM-1 Quantikine ELISA Kit, RnDsystems) using a detection limit at 31.3 pg/mL.
12 and 24-weeks old male ApoE−/− mice were put on a fat (lipids 15%, cholesterol 1.25%, no cholate) or chow diet and were treated by daily intraperitoneal injection of peptides (100 μg/day). After 4 weeks of treatment, mice were sacrificed for blood sampling.
Our second objective was to assess whether a treatment could impact plasma levels of sTREM-1. Atherosclerotic mice (24 weeks old ApoE−/− mice under fat diet) were treated by LR12 peptide, which targets TREM-1 ligand, or a control peptide LR12-scrambled.

For another test, the system named is infarcted mice. The experiment in a line: Mouse model of myocardial infarction: plasma sTREM-1 after peptide treatment. The test is classed as in vivo. Particulars: for sTREM-1 levels: daily i.p. injection for 5 days, vs LR12-scrambled (FIG. 4A). The procedure:
(A) Adult male Balb/c mice (20-23 g) were subjected to myocardial ischemia and were randomly grouped (n=10 per group) to receive repeated LR12 (100 μg in 0.2 mL NaCl 0.9% once a day for 5 days) or scrambled-LR12 (100 μg in 0.2 mL NaCl 0.9% once a day for 5 days), i.p. injections. Blood samples was obtained at 24, 72 and 168 hours after cardiac ischemic event to measure plasma sTREM-1 levels. Physiologic baseline is calculated from dosage in healthy animals. N=10 per group and per timepoint.
as §1
All procedures were performed on mice male C57BL/C ranging in age from 6-8 weeks. Mice were anesthetized by an intraperitoneal injection of xylazine (60 mg/kg) and fixed in supine position. The trachea was intubated and ventilated (the tidal volume was 200 μl/25 g and the respiratory rate was 120 breaths/min). After a left thoracotomy, the left coronary artery was identified and ligated with an 8-0 prolene surgical suture at 1.0 mm distal from tip of the left auricle. LAD occlusion was confirmed by a change in myocardial color from red to white in the ischemia area (Left ventricle). The chest was closed and the skin was sutured with 6-0 silk. The animals returned to their cage where they are supervised until their complete recovery.
Mice were randomized to receive or not peptides (daily ip injection for 5 days, 5 mg/kg) and were sacrificed after 24 h, 72 h, 168 h (n=6 per group) by anesthesia followed with pentobarbital sodium overdose for blood sampling.
We also show in infarcted mice that sTREM-1 levels were decreased by LR12 treatment 24 and 72 hours after an ischemic event (FIG. 4A).

“LR12: 12 amino-acids peptide (LQEEDTGEYGCV, SEQ ID NO: 4) known to specifically target TREM-1 ligand (LR12)” displayed a sTREM-1 plasma concentration in test [1] (24 weeks old ApoE−/− mice under fat diet, 100 μg/day i.p., after 4 weeks of treatment, ELISA) of 189.8 pg/mL. In test [1] (data not shown), the outcome during atherosclerosis is reported as “better outcome”. In addition, the sTREM-1 levels entry with infarcted mice (24 hours after ischemic event) and in the test on infarcted mice (72 hours after ischemic event) was “decreased” throughout. Moreover, the “outcome after a cardiac ischemic event” value with infarcted mice (data not shown) is listed as “better outcome”.
